Results published in paper PMC7400623, “Effect of lysine side chain length on histone lysine acetyltransferase catalysis” (Scientific Reports, 2020).

How the values were obtained:
[1] = molecular target: Human PCAF catalytic domain (residues 498-658) (human) (UniProt Q92831)
[2] = molecular target: Human GCN5 catalytic domain (residues 497-662) (human) (UniProt Q92830)
[3] = molecular target: T1, PCAF (KAT2B) (Homo sapiens, UniProt Q92831); assay: MALDI-TOF MS enzymatic assay of PCAF-catalyzed acetylation of histone peptides; format: biochemical; settings: 100 µM peptide, 300 µM AcCoA, pH 8.0, 37 °C; for acetylation (conversion to acetylated peptide) by PCAF: after 3 h, 2 µM PCAF, 50 mM Hepes, 0.1 mM EDTA, 1 mM DTT, MALDI-TOF MS
T1 construct: Human PCAF catalytic domain (residues 498–658 in pET16b vector); SNAP-tag; His-tag; made in house; host or cells: E. coli BL21(DE3)
T1 sequence (Q92831 498-658): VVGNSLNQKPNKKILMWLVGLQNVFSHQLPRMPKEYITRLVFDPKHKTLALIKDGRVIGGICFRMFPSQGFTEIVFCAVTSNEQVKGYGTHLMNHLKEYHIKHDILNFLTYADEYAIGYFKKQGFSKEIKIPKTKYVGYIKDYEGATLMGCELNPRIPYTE
Method: (§1) MALDI-TOF MS enzymatic assays were carried out to investigate KAT-catalyzed acetylation of synthetic histone peptides. The enzymatic activity of the recombinantly expressed human KATs was measured at different time points (2 µM KAT enzyme, 100 µM histone peptide, 300 µM AcCoA, buffer: 50 mM Hepes, 0.1 mM EDTA, 1 mM DTT, pH = 8.0, 37 °C, hereafter used as standard conditions) (Fig. 3b,c). […] As further control, H4 and H3 peptides containing stereochemically inverted D-lysine were synthesized.
(§2) The KAT enzymatic activity towards histone peptides was measured at different time points under standard conditions (2 µM KAT enzyme, 100 µM peptide, 300 µM AcCoA) in the reaction buffer (50 mM HEPES, 0.1 mM EDTA, 1 mM DTT, pH = 8.0). The reactions were carried out in a final volume of 50 µL and shaken up in a Thermomixer C at 750 rpm, at 37 °C. The reactions were quenched by the addition of TFA 10% in MilliQ water at different time points. All reactions were aliquoted and mixed 1:2 with a solution of α-Cyano-4-hydroxycinnamic acid (CHCCA) in 1:1 MQ and ACN (0.1% TFA) and loaded onto an MTP 384 polished steel target to be analyzed by a UltrafleXtreme-II tandem mass spectrometer (Bruker, Billerica, MA, USA).

[4] = molecular target: T2, PCAF catalytic domain (Homo sapiens, UniProt Q92831); assay: MALDI-TOF MS kinetics assay, PCAF; format: biochemical; settings: for kcat^app / Km: PCAF catalytic domain 50 nM (2 µM for unnatural analogs), peptide 1,050–0 µM, pH 7.4, 37 °C, MALDI-TOF MS, duplicates, value ± SD, SD; for kcat^app: AcCoA 100 µM (saturating), 50 mM HEPES, 0.1 mM EDTA, 0.01% TRITON-X; for Km: AcCoA 100 µM, read-out: Km^app; for kcat^app/Km^app / decrease (drop) of kcat/Km for PCAF compared to the natural lysine peptide: PCAF; for kcat^app/Km^app: same kinetics conditions; for decrease (drop) of kcat/Km for PCAF compared to the natural lysine peptide: K14 series vs H3K14, K9 series vs H3K9
T2 construct: Human PCAF catalytic domain (residues 498–658 in pET16b vector); SNAP-tag; His-tag; made in house; host or cells: E. coli BL21(DE3)
T2 sequence (Q92831 498-658): as above
Description: (§3) Kinetic analysis of bi-substrate enzymes, such as KATs, is reckoned to be challenging and dependent on many factors. Firstly, given the nature of these enzymes, the binding of one of the two substrates directly influences the binding of the other (with a direct effect on the Michaelis–Menten parameter Km). […] Therefore, to obtain data that would allow us to directly compare the catalytic properties of the selected KATs towards our selection of histone peptides bearing lysine analogs with longer side chains, two strategies to standardize our kinetic evaluation were taken: i) all the experiments were carried out with the same saturating concentrations of AcCoA and ii) only KATs catalytic domains were employed in the study.
(§4) Histone peptides kinetics evaluation was carried out with a MALDI-TOF MS assay under steady-state conditions[57],[58]. Histone peptides (1,050–0 µM) were incubated with AcCoA (100 µM) and the reactions were started by the addition of the enzyme (MOF 570 nM, PCAF and GCN5 50 nM) in a final volume of 20 µL in kinetic buffer (50 mM HEPES, 0.1 mM EDTA, 0.01% TRITON-X, pH = 7.4). […] AcCoA stock solutions in milli-Q water were calibrated with a NanoDrop 2000 spectrophotometer (Thermo Scientific, Waltham, MA, USA), employing the characteristic molar extinction coefficient ε260nm = 16,400 M^−1 cm^−1. Reactions were incubated at 37 °C, shaken at 750 rpm and quenched with TFA 10% in milli-Q water at different time points, within linear production of acetylated peptides extrapolated from time-course plots. All reactions were aliquoted and mixed 1:2 with a solution of α-cyano-4-hydroxycinnamic acid (CHCCA) in 1:1 MQ and ACN (0.1% TFA) and loaded onto MTP 384 polished steel target to be analyzed by UltrafleXtreme-II tandem mass spectrometer (Bruker). The amount of acetylated peptide was calculated by integration of the product peak area and divided it by the amount of unacetylated peptide, taking in account all the ionic species, at any concentration points using the FlexAnalysis software. Kinetic values were extrapolated by fitting V0 values (µM of produced peptide per minutes) and histone peptide concentrations to the Michaelis–Menten equation using the GraphPad Prism 5 software. Kinetic experiments were carried out in duplicates and final values are reported as value ± SD.

[5] = molecular target: T3, GCN5 (KAT2A) (Homo sapiens, UniProt Q92830); assay: MALDI-TOF MS enzymatic assay of GCN5-catalyzed acetylation of histone peptides; format: biochemical; settings: 300 µM AcCoA, pH 8.0, 37 °C; for acetylation (conversion to acetylated peptide) by GCN5: after 3 h, 2 µM GCN5, 100 µM peptide, 50 mM Hepes, 0.1 mM EDTA, 1 mM DTT, MALDI-TOF MS
T3 construct: Human GCN5 catalytic domain (residues 497–662 in pET28a-LIC vector); His-tag; host or cells: E. coli BL21(DE3)
T3 sequence (Q92830 497-662): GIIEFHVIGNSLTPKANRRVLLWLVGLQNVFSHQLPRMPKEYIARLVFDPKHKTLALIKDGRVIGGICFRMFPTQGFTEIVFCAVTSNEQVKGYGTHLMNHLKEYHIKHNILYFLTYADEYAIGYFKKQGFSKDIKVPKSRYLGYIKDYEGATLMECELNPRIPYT
Method: as §1, §2

[6] = molecular target: T4, GCN5 catalytic domain (Homo sapiens, UniProt Q92830); assay: MALDI-TOF MS kinetics assay, GCN5; format: biochemical; settings: for kcat^app/Km^app / decrease (drop) of kcat/Km for GCN5 compared to the natural lysine peptide: GCN5; for kcat^app/Km^app: same kinetics conditions; for kcat^app / Km: GCN5 catalytic domain 50 nM (2 µM for unnatural analogs), peptide 1,050–0 µM, pH 7.4, 37 °C, MALDI-TOF MS, duplicates, value ± SD, SD; for kcat^app: AcCoA 100 µM (saturating), 50 mM HEPES, 0.1 mM EDTA, 0.01% TRITON-X; for Km: AcCoA 100 µM, read-out: Km^app; for decrease (drop) of kcat/Km for GCN5 compared to the natural lysine peptide: K14 series vs H3K14, K9 series vs H3K9
T4 construct: Human GCN5 catalytic domain (residues 497–662 in pET28a-LIC vector); His-tag; host or cells: E. coli BL21(DE3)
T4 sequence (Q92830 497-662): as above
Description: as §3, §4

Sequence of Human GCN5 catalytic domain (residues 497-662) (human) (Q92830 497-662): as above
Sequence of Human PCAF catalytic domain (residues 498-658) (human) (Q92831 498-658): as the sequence (Q92831 498-658) above

Substance	Km^app of PCAF-catalyzed acetylation (MALDI-TOF MS kinetics, steady state, saturating AcCoA, 37 °C, pH 7.4) [1]	Km^app of GCN5-catalyzed acetylation (MALDI-TOF MS kinetics, steady state, saturating AcCoA, 37 °C, pH 7.4) [2]	time to quantitative acetylation by PCAF ([3]; standard conditions: 2 µM PCAF)	kcat^app [4]	Km [4]	kcat^app/Km^app [4]	time to quantitative acetylation by GCN5 ([5]; standard conditions: 2 µM GCN5, 100 µM peptide)	kcat^app/Km^app [6]	kcat^app [6]	Km [6]	acetylation (conversion to acetylated peptide) by PCAF [3]	decrease (drop) of kcat/Km for PCAF compared to the natural lysine peptide [4]	acetylation (conversion to acetylated peptide) by GCN5 [5]	decrease (drop) of kcat/Km for GCN5 compared to the natural lysine peptide [6]
H3K14 histone peptide (H3 residues 3-17, K9 acetylated)	727 μM	995 μM												
H3h2K14 histone peptide (H3 residues 3-17, K9 acetylated, h2K at position 14)	606 μM	1050 μM												
H3hK14 histone peptide (H3 residues 3-17, K9 acetylated, hLys at position 14)	488 μM	878 μM												
TKQTARK Ac STGG K14 APR [H3K14, 15-mer H3 peptide, residues 3–17, synthetically acetylated K9, reference compound]			15 min	6.07 ± 0.02 s⁻¹	727 ± 95 µM	8330 M⁻¹ s⁻¹	15 min	5930 M⁻¹ s⁻¹	5.9 ± 0.035 s⁻¹	995 ± 198 µM				
TKQTARK Ac STGG h2K 14 APR [H3h2K14, 15-mer histone H3 peptide (K9ac) with h2K at position 14]				0.0083 ± 0.0017 s⁻¹	606 ± 96 µM	13 M⁻¹ s⁻¹		6.7 M⁻¹ s⁻¹	0.00667 ± 0.0017 s⁻¹	1050 µM	55%	625 fold	25%	890 fold
TKQTARK Ac STGG hK 14 APR [H3hK14, 15-mer histone H3 peptide (K9ac) with hLys at position 14]				0.0155 ± 0.0033 s⁻¹	488 ± 98 µM	31.7 M⁻¹ s⁻¹		16.7 M⁻¹ s⁻¹	0.0145 ± 0.0017 s⁻¹	878 ± 157 µM	83%	263 fold	62%	354 fold
